Data taken from patent US10047050B2, “3,4-di-substituted pyridine compound, methods of using and compositions comprising the same” (ARDEA BIOSCIENCES, INC., priority 2011, dated 2018).
Several values for one entry are separate records, joined by “and”; a condition that tells them apart may be missing. Identical values can stand only once.

Tested on: serum uric acid
Test: Multi-dose Phase I clinical trial, serum uric acid (sUA), once daily for 10 days
Type: in vivo, human
Details: for Absolute sUA concentration: individual subjects 4-12; for Absolute sUA concentration, Mean (4-10): mean of subjects 4-10
Excerpt: A Phase 1, Randomized, Double-Blind, Placebo-Controlled Study to Evaluate Safety, Tolerability, Pharmacokinetics and Preliminary Food Effect of Multiple Rising Doses of a URAT1 Inhibitor, in Healthy Adult Male Volunteers.
Fasted subjects receive oral doses of active or placebo, once daily, for 10 days, at the following doses:
36 subjects in 3 dose groups, 12 subjects/group, are randomized […] to receive active (9/group) or placebo ([…]). All study procedures are the same regardless of whether subject receives active or placebo. Total duration of subject participation, including screening period, is ˜2-4 weeks, and the total volume of blood collected from each subject during the entire study <500 mL, (less than typically collected during a volunteer blood donation).
5 mg, active and placebo, tablets packaged in 35 count HDPE bottles, stored at controlled room temperature (15-30° C.). Placebo tablets are designed to match the active tablets—identical size, form, taste, and color, and containing the same excipients. 1 mg doses were administered as oral solutions.
Subjects dosed in the morning of Days 1-10 with ˜240 mL of room temp water.
Urine, serum and plasma samples collected periodically
PD samples frozen (−20° C.) and stored; all samples from a given subject assayed in a single analytical run.

[1] = group 7, 1 mg once daily for 10 days, Time 192, mean of subjects 4-12
[2] = group 7, 1 mg once daily for 10 days, Time 216, mean of subjects 4-12
[3] = group 7, 1 mg once daily for 10 days, Time 222 (post dosing), mean of subjects 4-12
[4] = group 7, 1 mg once daily for 10 days, Time 228 (post dosing), mean of subjects 4-12
[5] = group 7, 1 mg once daily for 10 days, Time 240 (post dosing), mean of subjects 4-12
[6] = group 7, 1 mg once daily for 10 days, Time 246 (post dosing), mean of subjects 4-12
[7] = group 7, 1 mg once daily for 10 days, Time 252 (post dosing), mean of subjects 4-12
[8] = group 7, 1 mg once daily for 10 days, Time 264 (post dosing), mean of subjects 4-12
[9] = group 7, 1 mg once daily for 10 days, Time 270 (post dosing), mean of subjects 4-12
[10] = group 7, 1 mg once daily for 10 days, Time 288 (post dosing), mean of subjects 4-12
[11] = group 7, 1 mg once daily for 10 days, Time 312 (post dosing), mean of subjects 4-12

CC(C)(Sc1ccncc1-c1ccc(C#N)c2ccccc12)C(=O)O [2-((3-(4-cyanonaphthalen-1-yl)pyridin-4-yl)thio)-2-methylpropanoic acid]
Absolute sUA concentration, Mean (4-12) (group 7, 1 mg once daily for 10 days, Time 168, mean of subjects 4-12): 6.1 mg/dL | Absolute sUA concentration (group 7, 1 mg once daily for 10 days, Time 192): 4.6 mg/dL and 5.0 mg/dL and 4.9 mg/dL and 6.5 mg/dL and 6.1 mg/dL and 5.9 mg/dL and 5.6 mg/dL and 5.1 mg/dL and 5.5 mg/dL | % sUA change (from baseline), Mean (4-12) [1]: −11.4% | Absolute sUA concentration, Mean (4-12) [1]: 5.5 mg/dL | Absolute sUA concentration (group 7, 1 mg once daily for 10 days, Time 216): 4.7 mg/dL (2×) and 4.9 mg/dL (2×) and 6.1 mg/dL and 5.8 mg/dL and 5.3 mg/dL and 5.6 mg/dL and 5.9 mg/dL | % sUA change (from baseline), Mean (4-12) [2]: −13.6% | Absolute sUA concentration, Mean (4-12) [2]: 5.3 mg/dL | Absolute sUA concentration (group 7, 1 mg once daily for 10 days, Time 222 (post dosing)): 4.7 mg/dL and 5.2 mg/dL and 4.9 mg/dL and 6.3 mg/dL and 5.9 mg/dL and 5.8 mg/dL and 5.4 mg/dL and 5.0 mg/dL and 5.5 mg/dL | % sUA change (from baseline), Mean (4-12) [3]: −12.2% | Absolute sUA concentration, Mean (4-12) [3]: 5.4 mg/dL | Absolute sUA concentration (group 7, 1 mg once daily for 10 days, Time 228 (post dosing)): 4.3 mg/dL and 4.8 mg/dL (2×) and 4.9 mg/dL and 6.2 mg/dL and 5.6 mg/dL and 5.5 mg/dL and 5.3 mg/dL and 5.4 mg/dL | % sUA change (from baseline), Mean (4-12) [4]: −15.6% | Absolute sUA concentration, Mean (4-12) [4]: 5.2 mg/dL | Absolute sUA concentration (group 7, 1 mg once daily for 10 days, Time 240 (post dosing)): 4.8 mg/dL and 5.5 mg/dL and 5.3 mg/dL and 6.9 mg/dL and 6.2 mg/dL (2×) and 5.9 mg/dL and 5.2 mg/dL and 6.0 mg/dL | % sUA change (from baseline), Mean (4-12) [5]: −6.3% | Absolute sUA concentration, Mean (4-12) [5]: 5.8 mg/dL | Absolute sUA concentration (group 7, 1 mg once daily for 10 days, Time 246 (post dosing)): 4.4 mg/dL | % sUA change (from baseline), Mean (4-12) [6]: −13.2% | Absolute sUA concentration, Mean (4-12) [6]: 5.4 mg/dL | % sUA change (from baseline), Mean (4-12) [7]: −10.6% | Absolute sUA concentration, Mean (4-12) [7]: 5.5 mg/dL | % sUA change (from baseline), Mean (4-12) [8]: −10.3% | Absolute sUA concentration, Mean (4-12) [8]: 5.5 mg/dL | % sUA change (from baseline), Mean (4-12) [9]: −17.4% | Absolute sUA concentration, Mean (4-12) [9]: 5.1 mg/dL | % sUA change (from baseline), Mean (4-12) [10]: −19.8% | Absolute sUA concentration, Mean (4-12) [10]: 5.0 mg/dL | % sUA change (from baseline), Mean (4-12) [11]: −14.9% | Absolute sUA concentration, Mean (4-12) [11]: 5.3 mg/dL | % sUA change (from baseline), Mean (4-12) (group 8, 5 mg once daily for 10 days, Time 0, mean of active subjects): 0% | Absolute sUA concentration, Mean (4-10) (group 8, 5 mg once daily for 10 days, Time 0): 5.9 mg/dL | % sUA change (from baseline), Mean (4-12) (group 8, 5 mg once daily for 10 days, Time 6, mean of active subjects): −20.5% | Absolute sUA concentration, Mean (4-10) (group 8, 5 mg once daily for 10 days, Time 6): 4.7 mg/dL | % sUA change (from baseline), Mean (4-12) (group 8, 5 mg once daily for 10 days, Time 12, mean of active subjects): −25.6% | Absolute sUA concentration, Mean (4-10) (group 8, 5 mg once daily for 10 days, Time 12): 4.4 mg/dL | % sUA change (from baseline), Mean (4-12) (group 8, 5 mg once daily for 10 days, Time 24, mean of active subjects): −21.1% | Absolute sUA concentration, Mean (4-10) (group 8, 5 mg once daily for 10 days, Time 24): 4.7 mg/dL | % sUA change (from baseline), Mean (4-12) (group 8, 5 mg once daily for 10 days, Time 48, mean of active subjects): −30.9% | Absolute sUA concentration, Mean (4-10) (group 8, 5 mg once daily for 10 days, Time 48): 4.1 mg/dL | % sUA change (from baseline), Mean (4-12) (group 8, 5 mg once daily for 10 days, Time 72, mean of active subjects): −33.7% | Absolute sUA concentration, Mean (4-10) (group 8, 5 mg once daily for 10 days, Time 72): 3.9 mg/dL | % sUA change (from baseline), Mean (4-12) (group 8, 5 mg once daily for 10 days, Time 96, mean of active subjects): −30.4% | Absolute sUA concentration, Mean (4-10) (group 8, 5 mg once daily for 10 days, Time 96): 4.1 mg/dL | % sUA change (from baseline), Mean (4-12) (group 8, 5 mg once daily for 10 days, Time 102, mean of active subjects): −37.8% | Absolute sUA concentration, Mean (4-10) (group 8, 5 mg once daily for 10 days, Time 102): 3.7 mg/dL | % sUA change (from baseline), Mean (4-12) (group 8, 5 mg once daily for 10 days, Time 108, mean of active subjects): −40.2% | Absolute sUA concentration, Mean (4-10) (group 8, 5 mg once daily for 10 days, Time 108): 3.5 mg/dL | % sUA change (from baseline), Mean (4-12) (group 8, 5 mg once daily for 10 days, Time 120, mean of active subjects): −30% | Absolute sUA concentration, Mean (4-10) (group 8, 5 mg once daily for 10 days, Time 120): 4.1 mg/dL | % sUA change (from baseline), Mean (4-12) (group 8, 5 mg once daily for 10 days, Time 144, mean of active subjects): −35.2% | Absolute sUA concentration, Mean (4-10) (group 8, 5 mg once daily for 10 days, Time 144): 3.8 mg/dL | % sUA change (from baseline), Mean (4-12) (group 8, 5 mg once daily for 10 days, Time 168, mean of active subjects): −38.1% | Absolute sUA concentration, Mean (4-10) (group 8, 5 mg once daily for 10 days, Time 168): 3.6 mg/dL | % sUA change (from baseline), Mean (4-12) (group 8, 5 mg once daily for 10 days, Time 192, mean of active subjects): −35.7% | Absolute sUA concentration, Mean (4-10) (group 8, 5 mg once daily for 10 days, Time 192): 3.8 mg/dL | % sUA change (from baseline), Mean (4-12) (group 8, 5 mg once daily for 10 days, Time 216, mean of active subjects): −33.4% | Absolute sUA concentration, Mean (4-10) (group 8, 5 mg once daily for 10 days, Time 216): 3.9 mg/dL | % sUA change (from baseline), Mean (4-12) (group 8, 5 mg once daily for 10 days, Time 222 (post dosing), mean of active subjects): −39.6% | Absolute sUA concentration, Mean (4-10) (group 8, 5 mg once daily for 10 days, Time 222 (post dosing)): 3.6 mg/dL | % sUA change (from baseline), Mean (4-12) (group 8, 5 mg once daily for 10 days, Time 228 (post dosing), mean of active subjects): −41.4% | Absolute sUA concentration, Mean (4-10) (group 8, 5 mg once daily for 10 days, Time 228 (post dosing)): 3.5 mg/dL | % sUA change (from baseline), Mean (4-12) (group 8, 5 mg once daily for 10 days, Time 240 (post dosing), mean of active subjects): −31.2% | Absolute sUA concentration, Mean (4-10) (group 8, 5 mg once daily for 10 days, Time 240 (post dosing)): 4.1 mg/dL | % sUA change (from baseline), Mean (4-12) (group 8, 5 mg once daily for 10 days, Time 246 (post dosing), mean of active subjects): −35.8% | Absolute sUA concentration, Mean (4-10) (group 8, 5 mg once daily for 10 days, Time 246 (post dosing)): 3.8 mg/dL | % sUA change (from baseline), Mean (4-12) (group 8, 5 mg once daily for 10 days, Time 252 (post dosing), mean of active subjects): −39.1% | Absolute sUA concentration, Mean (4-10) (group 8, 5 mg once daily for 10 days, Time 252 (post dosing)): 3.6 mg/dL | % sUA change (from baseline), Mean (4-12) (group 8, 5 mg once daily for 10 days, Time 264 (post dosing), mean of active subjects): −31.9% | Absolute sUA concentration, Mean (4-10) (group 8, 5 mg once daily for 10 days, Time 264 (post dosing)): 4.0 mg/dL | % sUA change (from baseline), Mean (4-12) (group 8, 5 mg once daily for 10 days, Time 270 (post dosing), mean of active subjects): −22.9% | Absolute sUA concentration, Mean (4-10) (group 8, 5 mg once daily for 10 days, Time 270 (post dosing)): 4.5 mg/dL | % sUA change (from baseline), Mean (4-12) (group 8, 5 mg once daily for 10 days, Time 288 (post dosing), mean of active subjects): −24.8% | Absolute sUA concentration, Mean (4-10) (group 8, 5 mg once daily for 10 days, Time 288 (post dosing)): 4.4 mg/dL | % sUA change (from baseline), Mean (4-12) (group 8, 5 mg once daily for 10 days, Time 312 (post dosing), mean of active subjects): −13.7% | Absolute sUA concentration, Mean (4-10) (group 8, 5 mg once daily for 10 days, Time 312 (post dosing)): 5.1 mg/dL
